Measurements reported in patent publication US12630535B2, “Inhibitors of ACK1/TNK2 tyrosine kinase” (H. LEE MOFFITT CANCER CENTER AND RESEARCH INSTITUTE, INC., priority 2020, dated 2026).

Tests used:
ACK1 [1] = target: T1, ACK1 (Homo sapiens, UniProt Q07912); experiment: Reaction Biology 33P Hotspot assay; assay type: biochemical
ACK1 [2] = target: T1, ACK1; experiment: ACK1 IC50 (Table 1); assay type: biochemical
ACK1 [3] = target: T1, ACK1; experiment: ACK1 ELISA; assay type: biochemical; details: read-out: ACK1 ELISA % Inhibition at 100 nM
[4] = tested on: AR Tyr267 phosphorylation; details: cited from earlier work
[5] = tested on: castration and radioresistant prostate xenograft tumor; details: cited from earlier work
[6] = tested on: AKT Tyr176 phosphorylation; details: pancreatic cancer cells; cited from earlier work
[7] = tested on: ACK1 autophosphorylation (Tyr284); details: HEK293 cells, 2 μM; cited from earlier work
A549 lung cancer cell = details: 10 μM; cited from earlier work
[8] = tested on: ACK1 in NCI-H1703 human non-small cell lung cancer cells; details: read-out: IC50 for ACK1 inhibition in NCI-H1703 cells (ELISA); cited from earlier work
[9] = mouse models; cited from earlier work

T1 sequence (Q07912 whole entry): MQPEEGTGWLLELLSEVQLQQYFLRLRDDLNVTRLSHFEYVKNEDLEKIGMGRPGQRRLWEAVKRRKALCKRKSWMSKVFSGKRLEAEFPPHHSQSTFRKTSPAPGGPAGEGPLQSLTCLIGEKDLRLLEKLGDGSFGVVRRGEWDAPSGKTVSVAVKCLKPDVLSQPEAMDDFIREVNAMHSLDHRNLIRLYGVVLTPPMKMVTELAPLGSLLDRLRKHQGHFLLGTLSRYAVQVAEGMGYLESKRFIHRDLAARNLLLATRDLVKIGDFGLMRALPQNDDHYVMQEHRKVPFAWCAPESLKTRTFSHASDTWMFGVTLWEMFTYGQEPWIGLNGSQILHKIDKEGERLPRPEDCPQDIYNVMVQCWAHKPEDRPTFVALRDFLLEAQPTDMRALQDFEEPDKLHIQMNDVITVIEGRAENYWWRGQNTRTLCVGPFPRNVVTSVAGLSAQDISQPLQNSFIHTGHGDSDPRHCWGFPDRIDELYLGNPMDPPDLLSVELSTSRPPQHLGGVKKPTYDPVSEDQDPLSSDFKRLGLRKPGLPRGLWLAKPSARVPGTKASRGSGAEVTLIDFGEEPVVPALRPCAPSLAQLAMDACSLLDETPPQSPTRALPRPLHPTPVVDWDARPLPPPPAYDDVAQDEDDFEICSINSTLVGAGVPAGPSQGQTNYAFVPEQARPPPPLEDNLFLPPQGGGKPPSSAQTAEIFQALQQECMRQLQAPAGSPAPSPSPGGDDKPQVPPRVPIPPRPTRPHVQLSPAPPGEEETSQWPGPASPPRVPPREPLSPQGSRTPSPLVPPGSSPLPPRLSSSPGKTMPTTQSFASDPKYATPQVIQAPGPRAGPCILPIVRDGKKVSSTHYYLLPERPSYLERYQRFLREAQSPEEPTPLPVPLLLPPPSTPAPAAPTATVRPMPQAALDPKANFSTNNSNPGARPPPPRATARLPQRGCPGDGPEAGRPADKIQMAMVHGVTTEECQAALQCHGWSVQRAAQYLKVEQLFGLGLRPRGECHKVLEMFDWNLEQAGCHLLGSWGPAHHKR

| IC50 (ACK1 [1]) [nM] | IC50 (ACK1 [2]) [µM] | SMILES | other results |
| --- | --- | --- | --- |
| 51 |  | CN1CCN(c2ccc(Nc3ncc(Cl)c(NC[C@H]4CCCO4)n3)cc2CO)CC1 |  |
| 9.87 |  | CC(=O)N1CCN(c2ccc(Nc3ncc(Cl)c(NCC4CCOCC4)n3)cc2OC(C)C)CC1 [1-(4-(4-((5-chloro-4-(((tetrahydro-2H-pyran-4-yl)methyl)amino)pyrimidin-2-yl)amino)-2-isopropoxyphenyl)piperazin-1-yl)ethan-1-one] |  |
| 17.3 |  | COc1cc(N2CCN(C(C)=O)CC2)ccc1Nc1ncc(Cl)c(NCC2CCOCC2)n1 [1-(4-(4-((5-chloro-4-(((tetrahydro-2H-pyran-4-yl)methyl)amino)pyrimidin-2-yl)amino)-3-methoxyphenyl)piperazin-1-yl)ethan-1-one] |  |
| 26.6 |  | CC(=O)N1CCN(c2ccc(Nc3ncc(Cl)c(NCC4CCOCC4)n3)cc2)CC1 [1-(4-(4-((5-chloro-4-(((tetrahydro-2H-pyran-4-yl)methyl)amino)pyrimidin-2-yl)amino)phenyl)piperazin-1-yl)ethan-1-one] |  |
|  | 0.0202 | COc1cc(C2CCN(C)CC2)ccc1Nc1ncc(Cl)c(NCC2CCOCC2)n1 [5-chloro-N^2-(2-methoxy-4-(1-methylpiperidin-4-yl)phenyl)-N^4-((tetrahydro-2H-pyran-4-yl)methyl)pyrimidine-2,4-diamine] |  |
|  | 0.0149 | COc1cc(N2CCN(C)CC2)ccc1Nc1ncc(Cl)c(NCC2CCOCC2)n1 [5-chloro-N^2-(2-methoxy-4-(4-methylpiperazin-1-yl)phenyl)-N^4-((tetrahydro-2H-pyran-4-yl)methyl)pyrimidine-2,4-diamine] |  |
| 87.9 |  | COc1c(Nc2ncc(Cl)c(NCC3CCOCC3)n2)ccc(N2CCN(C)CC2)c1F [5-chloro-N^2-(3-fluoro-2-methoxy-4-(4-methylpiperazin-1-yl)phenyl)-N^4-((tetrahydro-2H-pyran-4-yl)methyl)pyrimidine-2,4-diamine] |  |
|  | 0.0198 | CN1CCN(c2ccc(Nc3ncc(Cl)c(NCC4CCOCC4)n3)cc2F)CC1 [5-chloro-N^2-(3-fluoro-4-(4-methylpiperazin-1-yl)phenyl)-N^4-((tetrahydro-2H-pyran-4-yl)methyl)pyrimidine-2,4-diamine] |  |
|  | 0.0395 | CN1CCC(c2ccc(Nc3ncc(Cl)c(NCC4CCOCC4)n3)cc2)CC1 [5-chloro-N^2-(4-(1-methylpiperidin-4-yl)phenyl)-N^4-((tetrahydro-2H-pyran-4-yl)methyl)pyrimidine-2,4-diamine] |  |
|  | 0.0205 | CN1CCN(c2ccc(Nc3ncc(Cl)c(NCC4CCOCC4)n3)cc2)CC1 [5-chloro-N^2-(4-(4-methylpiperazin-1-yl)phenyl)-N^4-((tetrahydro-2H-pyran-4-yl)methyl)pyrimidine-2,4-diamine] |  |
| 11.9 |  | COc1cc(N2CCN(C)CC2)c(F)cc1Nc1ncc(Cl)c(NCC2CCOCC2)n1 [5-chloro-N^2-(5-fluoro-2-methoxy-4-(4-methylpiperazin-1-yl)phenyl)-N4-((tetrahydro-2H-pyran-4-yl)methyl)pyrimidine-2,4-diamine] |  |

Further lines, the compound ahead of its results:

| SMILES | IC50 (ACK1 [1]) [nM] | IC50 (ACK1 [2]) [µM] | other results |
| --- | --- | --- | --- |
| CN1CCN(c2ccc(Nc3ncc(Cl)c(NC[C@H]4CCCO4)n3)cc2C#N)CC1 | 112 |  |  |
| COc1ccc(CNc2nc(Nc3ccc(N4CCN(C)CC4)cc3OC)ncc2Cl)cc1 [5-chloro-N^2-(2-methoxy-4-(4-methylpiperazin-1-yl)phenyl)-N^4-(4-methoxybenzyl)pyrimidine-2,4-diamine] |  | 0.0829 | inhibition at 0.1 µM (ACK1 [3]): 70.3% |
| COc1cc(N2CCN(C)CC2)ccc1Nc1ncc(Cl)c(NCc2ccc(C)cc2)n1 [5-chloro-N^2-(2-methoxy-4-(4-methylpiperazin-1-yl)phenyl)-N^4-(4-methylbenzyl)pyrimidine-2,4-diamine] |  | 0.0508 | inhibition at 0.1 µM (ACK1 [3]): 77.6% |
| CN1CCC(c2ccc(Nc3ncc(Cl)c(NCC4CCOCC4)n3)cc2F)CC1 [5-chloro-N^2-(3-fluoro-4-(1-methylpiperidin-4-yl)phenyl)-N^4-((tetrahydro-2H-pyran-4-yl)methyl)pyrimidine-2,4-diamine] |  |  | IC50 (ACK1 [2]; unit inferred): 0.0359 µM |
| CN1CCN(Cc2ccc(Nc3ncc(Cl)c(NCC4CCCO4)n3)cc2)CC1 (centres unmarked) [5-chloro-N^2-(4-((4-methylpiperazin-1-yl)methyl)phenyl)-N^4-((tetrahydrofuran-2-yl)methyl)pyrimidine-2,4-diamine] | 145 |  |  |
| COc1cc(N2CCN(C)CC2)ccc1Nc1ncc(Cl)c(NCc2ccc(Cl)cc2Cl)n1 [5-chloro-N^4-(2,4-dichlorobenzyl)-N^2-(2-methoxy-4-(4-methylpiperazin-1-yl)phenyl)pyrimidine-2,4-diamine] |  | 0.0701 | inhibition at 0.1 µM (ACK1 [3]): 78.1% |
| COc1cc(N2CCN(C)CC2)ccc1Nc1ncc(Cl)c(NCc2ccc(Cl)cc2)n1 [5-chloro-N^4-(4-chlorobenzyl)-N^2-(2-methoxy-4-(4-methylpiperazin-1-yl)phenyl)pyrimidine-2,4-diamine] |  |  | inhibition at 0.1 µM (ACK1 [3]): 67.9% |
| COc1cc(N2CCN(C)CC2)ccc1Nc1ncc(Cl)c(NCc2ccc(F)cc2)n1 [5-chloro-N^4-(4-fluorobenzyl)-N^2-(2-methoxy-4-(4-methylpiperazin-1-yl)phenyl)pyrimidine-2,4-diamine] |  | 0.0439 | inhibition at 0.1 µM (ACK1 [3]): 91.2% |
| CN1CCN(c2ccc(Nc3ncc(Cl)c(NCc4ccc(F)cc4)n3)cc2)CC1 [5-chloro-N^4-(4-fluorobenzyl)-N^2-(4-(4-methylpiperazin-1-yl)phenyl)pyrimidine-2,4-diamine] |  | 0.0356 | inhibition at 0.1 µM (ACK1 [3]): 94% |
| CN1CCC(c2cc(F)c(Nc3ncc(Cl)c(NC[C@H]4CCCO4)n3)cc2F)CC1 [(R)-5-chloro-N^2-(2,5-difluoro-4-(1-methylpiperidin-4-yl)phenyl)-N^4-((tetrahydrofuran-2-yl)methyl)pyrimidine-2,4-diamine] |  | 0.0447 |  |
| Cc1cc(Nc2ncc(Cl)c(NC[C@H]3CCCO3)n2)c(F)cc1C1CCN(C)CC1 [(R)-5-chloro-N^2-(2-fluoro-5-methyl-4-(1-methylpiperidin-4-yl)phenyl)-N^4-((tetrahydrofuran-2-yl)methyl)pyrimidine-2,4-diamine] |  | 0.0853 |  |
| CN1CCN(c2cccc(Nc3ncc(Cl)c(NC[C@H]4CCCO4)n3)c2)CC1 [(R)-5-chloro-N^2-(3-(4-methylpiperazin-1-yl)phenyl)-N^4-((tetrahydrofuran-2-yl)methyl)pyrimidine-2,4-diamine] | 88 |  |  |
| COCCOCc1cc(Nc2ncc(Cl)c(NC[C@H]3CCCO3)n2)ccc1N1CCN(C)CC1 [(R)-5-chloro-N^2-(3-((2-methoxyethoxy)methyl)-4-(4-methylpiperazin-1-yl)phenyl)-N^4-((tetrahydrofuran-2-yl)methyl)pyrimidine-2,4-diamine] | 198 |  |  |
| CC(C)OCc1cc(Nc2ncc(Cl)c(NC[C@H]3CCCO3)n2)ccc1N1CCN(C)CC1 [(R)-5-chloro-N^2-(3-(isopropoxymethyl)-4-(4-methylpiperazin-1-yl)phenyl)-N^4-((tetrahydrofuran-2-yl)methyl)pyrimidine-2,4-diamine] | 167 |  |  |
| CC(C)Oc1cc(Nc2ncc(Cl)c(NC[C@H]3CCCO3)n2)ccc1C1CCN(C)CC1 [(R)-5-chloro-N^2-(3-isopropoxy-4-(1-methylpiperidin-4-yl)phenyl)-N^4-((tetrahydrofuran-2-yl)methyl)pyrimidine-2,4-diamine] | 62 |  |  |
| COc1cc(Nc2ncc(Cl)c(NC[C@H]3CCCO3)n2)ccc1C1CCN(C)CC1 [(R)-5-chloro-N^2-(3-methoxy-4-(1-methylpiperidin-4-yl)phenyl)-N^4-((tetrahydrofuran-2-yl)methyl)pyrimidine-2,4-diamine] | 87.2 |  |  |
| c1ccc(-c2oc3ncnc(NC[C@@H]4CCCO4)c3c2-c2ccccc2)cc1 [Compound 1b] |  |  | AR Tyr267 phosphorylation [4]: inhibits; xenograft tumor growth [5]: inhibits; ACK1 dependent AKT Tyr176 phosphorylation [6]: inhibits |
| COc1cc(N2CCN(C)CC2)ccc1Nc1ncc2c(n1)N(C)c1ccccc1C(=O)N2 [Compound 3] |  |  | EGF induced ACK1 autophosphorylation (Tyr284) [7]: abolishes; A549 lung cancer cell growth (A549 lung cancer cell): inhibits |
| COc1cc(Oc2ccccc2)ccc1-c1nc(C2CC(C)(O)C2)n2ccnc(N)c12 (centres unmarked) [Compound 4] |  |  | IC50 [8]: 0.035 µM; oral bioavailability [9]: orally bioavailable |
| COc1cc(N2CCN(C)CC2)ccc1Nc1ncc(Cl)c(NCc2ccccc2)n1 [N^4-benzyl-5-chloro-N^2-(2-methoxy-4-(4-methylpiperazin-1-yl)phenyl)pyrimidine-2,4-diamine] |  | 0.0482 | inhibition at 0.1 µM (ACK1 [3]): 98.2% |
